Assay results published in patent US9012446B2, “Amino-oxazines and amino-dihydrothiazine compounds as beta-secretase modulators and methods of use” (Amgen Inc., priority 2010, dated 2015).
Where two headings read alike, the source gives them in different places.

Assays:
[1] = system: Abeta 40; assay: In vivo inhibition of beta-secretase: Abeta 40 reduction in CSF and brain of the rat; details: after 4 hrs; for inhibition in vivo at 10 mg/kg: 10 mpk
Excerpt: In Vivo Inhibition of Beta-Secretase
Several animal models, including mouse, rat, dog, and monkey, may be used to screen for inhibition of beta-secretase activity in vivo following administration of a test compound sample. Animals used in this invention can be wild type, transgenic, or gene knockout animals. For example, the Tg2576 mouse model, prepared and conducted as described in Hsiao et al., 1996, Science 274, 99-102, and other non-transgenic or gene knockout animals are useful to analyze in vivo inhibition of Amyloid beta peptide (Abeta) production in the presence of inhibitory test compounds. Generally, 2 to 18 month old Tg2576 mice, gene knockout mice or non-transgenic animals are administered test compounds formulated in vehicles, such as cyclodextran, phosphate buffers, hydroxypropyl methylcellulose or other suitable vehicles. One to twenty-four hours following the administration of compound, animals are sacrificed, and brains as well as cerebrospinal fluid (CSF) and plasma are removed for analysis of A-beta levels and drug or test compound concentrations (Dovey et al., 2001, Journal of Neurochemistry, 76,173-181) Beginning at time 0, animals are administered by oral gavage, or other means of delivery such as intravenous injection, an inhibitory test compound of up to 100 mg/kg in a standard, conventional formulation, such as 2% hydroxypropyl methylcellulose, 1% Tween80. A separate group of animals receive 2% hydroxypropyl methylcellulose, 1% Tween80 alone, containing no test compound, and serve as a vehicle-control group. At the end of the test period, animals are sacrificed and brain tissues, plasma or cerebrospinal fluid are collected. Brains are either homogenized in 10 volumes (w/v) of 0.2% diethylamine (DEA) in 50 mM NaCl (Best et al., 2005, Journal of Pharmacology and Experimental Therapeutics, 313, 902-908), or in 10 volumes of 0.5% TritonX-100 in Tris-buffered saline (pH at about 7.6). Homogenates are centrifuged at 355,000 g, 4° C. for 30 minutes. CSF or brain supernatants are then analyzed for the presence of A-beta peptide by specific sandwich ELISA assays based on ECL (Electrochemiluminescence) technology. For example, rat Abeta40 is measured using biotinylated-4G8 (Signet) as a capture antibody and Fab40 (an in-house antibody specific to the C-terminal of Abeta40) as a detection antibody. For example, 4 hours after administration of 30 mg/kg oral dose of the test compound in 2% hydroxypropyl methylcellulose, 1% Tween80 (pH2.2) to 200 g male Sprague Dawley rats, amyloid beta peptide levels are measured for reduction by X % and Y % in cerebrospinal fluid and brain, respectively, when compared to the levels measured in the vehicle-treated rats. • Actual vehicles used: Oral: 2% HPMC, 1% Tween80, pH 2.2 • IV: 5% EtOH, 45% Propylene glycol in 5% Dextrose
The compounds of the invention may be shown to reduce the formation and/or deposition of amyloid beta peptide in the cerebrospinal fluid (CSF) as well as in the brain of a mouse or rat at either 3 mpk, 10 mpk or 30 mpk (mpk=mg compound per kg weight of the animal) dosing concentrations after 4 hrs.

[2] = system: Aβ40; assay: In vitro BACE cell-based assay (Aβ40 sandwich ELISA, cells stably expressing APP); details: Homo sapiens
How it was run: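 APP-stably-expressing cells, grown 24 h in DMEM/10% FBS, received 10-point compound doses starting at 100 μM or 10 μM (0.1% DMSO final). Secreted Aβ40 in supernatants measured by sandwich ELISA with time-resolved europium fluorescence; IC50 from percent inhibition versus concentration.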

[3] = target: BACE (Homo sapiens, UniProt P56817); assay: In vitro enzymatic BACE FRET assay; assay type: biochemical; details: average IC50, enzyme assay; read-out: BACE 1 FRET assay
How it was run: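 BACE (0.2 nM) preincubated 1 h with serially diluted inhibitors in 0.05 M acetate pH 4.2, 10% DMSO, 100 uM genapol. FRET peptide substrate (50 nM) added, 1 h incubation, then stopped with Tris to neutral pH. Fluorescence from cleavage read at […].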

[4] = Abeta 40, rat CSF, read-out: % reduction of rat CSF levels at 10 pmk
[5] = Abeta 40, rat brain, read-out: % reduction of rat brain levels at 10 mpk
[6] = HEK293, average IC50, cell assay, HEK cells
[7] = HEK293, average IC50, read-out: HEK cell assay

Sequence of BACE (P56817 46-501, species assumed): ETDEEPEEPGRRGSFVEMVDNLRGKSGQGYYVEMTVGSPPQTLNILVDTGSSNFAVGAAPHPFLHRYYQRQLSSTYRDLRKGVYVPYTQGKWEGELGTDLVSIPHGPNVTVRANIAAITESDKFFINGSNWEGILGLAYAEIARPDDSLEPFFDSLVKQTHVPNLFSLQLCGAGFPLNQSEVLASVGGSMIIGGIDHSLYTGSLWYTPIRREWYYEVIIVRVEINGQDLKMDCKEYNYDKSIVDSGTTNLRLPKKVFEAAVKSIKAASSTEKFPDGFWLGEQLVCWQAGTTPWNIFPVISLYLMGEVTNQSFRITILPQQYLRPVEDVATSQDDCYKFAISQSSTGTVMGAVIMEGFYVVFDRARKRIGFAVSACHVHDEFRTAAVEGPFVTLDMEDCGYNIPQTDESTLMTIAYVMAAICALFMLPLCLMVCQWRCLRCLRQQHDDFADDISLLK

IC50 [2, 6] [nM]	IC50 [3] [nM]	IC50 [2, 7] [nM]	Compound	inhibition in vivo at 10 mg/kg [1, 4] [%]	inhibition in vivo at 10 mg/kg [1, 5] [%]	% reduction of rat CSF levels ([1]; Abeta 40, rat CSF) [% at 3 mpk]	% reduction of rat brain levels ([1]; Abeta 40, rat brain) [% at 3 mpk]
1.9	0.5		CC1(C#Cc2cc(F)c3c(c2)[C@]2(COCC(N)=N2)c2cc(-c4cccnc4F)ccc2O3)COC1 [Example 41, (S)-4′-fluoro-7′-(2-fluoropyridin-3-yl)-2′-((3-methyloxetan-3-yl)ethynyl)-2,6-dihydrospiro[[1,4]oxazine-3,9′-xanthen]-5-amine]	13	23		
	12.2	11	NC1=N[C@@]2(CCO1)c1cc(-c3cccnc3F)ccc1Oc1ncc(-c3ccnc(F)c3)cc12 [Example 60, (S)-7-(2-fluoropyridin-3-yl)-3-(2-fluoropyridin-4-yl)-5′,6′-dihydrospiro[chromeno[2,3-b]pyridine-5,4′-[1,3]oxazin]-2′-amine]	56	25		
0.8	0.4		NC1=N[C@@]2(COC1)c1cc(-c3cccnc3F)ccc1Oc1cnc(N3CCC(F)(F)C3)cc12 [Example 74, (5S)-3-(3,3-difluoro-1-pyrrolidinyl)-7-(2-fluoro-3-pyridinyl)-6′H-spiro[chromeno[2,3-c]pyridine-5,3′-[1,4]oxazin]-5′-amine]	47	26		
4.9	0.9		NC1=N[C@@]2(COC1)c1cc(-c3cccnc3F)ccc1Oc1c2cc(N2CCC(F)(F)CC2)nc1F [Example 129, (S)-3-(4,4-difluoropiperidin-1-yl)-1-fluoro-7-(2-fluoropyridin-3-yl)-2′,6′-dihydrospiro[chromeno[2,3-c]pyridine-5,3′-[1,4]oxazin]-5′-amine 2,2,2-trifluoroacetate]	22	17		
	1.4	1.6	NC1=N[C@@]2(CCO1)c1cc(-c3cncc(F)c3)ccc1Oc1c2cc(-c2ccnc(F)c2)nc1F [Example 226, (S)-1-fluoro-7-(5-fluoropyridin-3-yl)-3-(2-fluoropyridin-4-yl)-5′,6′-dihydrospiro[chromeno[2,3-c]pyridine-5,4′-[1,3]oxazin]-2′-amine]	83	74		
1.8	0.5		NC1=N[C@@]2(CCO1)c1cc(-c3cccnc3F)ccc1Oc1c2cc(-c2ccnc(F)c2)nc1F [Example 107, (S)-1-fluoro-7-(2-fluoropyridin-3-yl)-3-(2-fluoropyridin-4-yl)-5′,6′-dihydrospiro[chromeno[2,3-c]pyridine-5,4′-[1,3]oxazin]-2′-amine]	82	72		
5.2	0.6		NC1=N[C@]2(COC1)c1cc(C3=CCOCC3)ccc1Oc1ccc(-c3cccnc3F)cc12 [Example 64, (R)-2′-(3,6-dihydro-2H-pyran-4-yl)-7′-(2-fluoropyridin-3-yl)-2,6-dihydrospiro[[1,4]oxazine-3,9′-xanthen]-5-amine]	8	4		
	0.6	0.7	Cc1cc(-c2cc3c(c(F)n2)Oc2ccc(-c4cccnc4F)cc2[C@@]32COCC(N)=N2)ccn1 [Example 248, (S)-1-fluoro-7-(2-fluoropyridin-3-yl)-3-(2-methylpyridin-4-yl)-2′,6′-dihydrospiro[chromeno[2,3-c]pyridine-5,3′-[1,4]oxazin]-5′-amine]	53	39		
	3.3	2.6	CC1(C#Cc2cc(F)c3c(c2)[C@]2(CCOC(N)=N2)c2cc(-c4cccnc4F)ccc2O3)COC1 [Example 17A, (S)-4′-fluoro-7′-(2-fluoropyridin-3-yl)-2′-((3-methyloxetan-3-yl)ethynyl)-5,6-dihydrospiro[[1,3]oxazine-4,9′-xanthen]-2-amine]	44	37		
0.5	0.5		NC1=N[C@@]2(CCO1)c1cc(-c3cccnc3F)ccc1Oc1c2cc(C2=CCCOC2)nc1F [Example 110, (S)-3-(5,6-dihydro-2H-pyran-3-yl)-1-fluoro-7-(2-fluoropyridin-3-yl)-5′,6′-dihydrospiro[chromeno[2,3-c]pyridine-5,4′-[1,3]oxazin]-2′-amine]	86	79		
3.8	4.8		NC1=N[C@@]2(CCO1)c1cc(-c3cccnc3F)ccc1Oc1cnc(-c3ccnc(F)c3)cc12 [Example 149, (S)-7-(2-fluoropyridin-3-yl)-3-(2-fluoropyridin-4-yl)-5′,6′-dihydrospiro[chromeno[2,3-c]pyridine-5,4′-[1,3]oxazin]-2′-amine]	80	62		
0.3	0.6		NC1=N[C@@]2(COC1)c1cc(-c3cncc(F)c3)ccc1Oc1cnc(N3CCC(F)(F)C3)cc12 [Example 122, (S)-3-(3,3-difluoropyrrolidin-1-yl)-7-(5-fluoropyridin-3-yl)-2′,6′-dihydrospiro[chromeno[2,3-c]pyridine-5,3′-[1,4]oxazin]-5′-amine]			11	14
	0.6	2.8	CC(C)(C)COc1cc2c(c(F)n1)Oc1ccc(-c3cccnc3F)cc1[C@@]21COCC(N)=N1 [Example 250, (5S)-3-(2,2-dimethylpropoxy)-1-fluoro-7-(2-fluoro-3-pyridinyl)-6′H-Spiro[chromeno[2,3-c]pyridine-5,3′-[1,4]oxazin]-5′-amine]	72	72		
	0.8	0.4	CC(C)(C)COc1cnc2c(c1)[C@]1(COCC(N)=N1)c1cc(-c3cccnc3F)ccc1O2 [Example 55, (S)-7-(2-fluoropyridin-3-yl)-3-(neopentyloxy)-2′,6′-dihydrospiro[chromeno[2,3-b]pyridine-5,3′-[1,4]oxazin]-5′-amine]	65	51		
1.1	0.4		CC(C)(C)COc1cc2c(cn1)Oc1ccc(-c3cccnc3F)cc1[C@@]21COCC(N)=N1 [Example 33, (S)-7-(2-fluoropyridin-3-yl)-3-(neopentyloxy)-2′,6′-dihydrospiro[chromeno[2,3-c]pyridine-5,3′-[1,4]oxazin]-5′-amine]	61	48		
2.9	0.4		NC1=N[C@@]2(COC1)c1cc(-c3cccnc3F)ccc1Oc1c(F)cc(-c3ccnc(F)c3)cc12 [Example 36A, (S)-4′-fluoro-7′-(2-fluoropyridin-3-yl)-2′-(2-fluoropyridin-4-yl)-2,6-dihydrospiro[[1,4]oxazine-3,9′-xanthen]-5-amine]	26	25		
1.5	0.4		CC(C)(C#N)COc1cc2c(cn1)Oc1ccc(-c3cccc(F)c3)cc1[C@@]21COCC(N)=N1 [Example 126, (S)-3-(5′-amino-7-(3-fluorophenyl)-2′,6′-dihydrospiro[chromeno[2,3-c]pyridine-5,3′-[1,4]oxazine]-3-yloxy)-2,2-dimethylpropanenitrile]	25	8		
